In patent publication US12318452B2, “Degraders of WEE1 kinase” (DANA-FARBER CANCER INSTITUTE, INC., priority 2018, dated 2025):

Assays:
[1] = test system: MOLT4 cells (parental, wild type); assay: CellTiter-Glo cell viability, 72 hours; type: cell-based
Protocol: The indicated cell lines were plated in flat bottom 384-well plates (Corning® cat #3570). MOLT4 cells were plated at a density of 3,000 cells per well in 50 μL media, while OVCAR8, COV362, and Kuramochi cells were plated at a density of 750 cells per well in 50 μL media. Cells were treated the next day (except for MOLT4 cells, which were treated the same day as plating) with 0.1 μL of the indicated compounds in a four-fold dilution series using the Janus pinner. Cells were incubated with compounds for 72 hours at 37° C. 5% CO2. Anti-proliferative effects were then assessed by CellTiter-Glo® Luminescent Cell Viability Assay (Promega™ cat #G7570) according to the manufacturer's standards, measuring luminescence using an EnVision® plate-reader. IC50 values were determined using a non-linear regression curve fit in GraphPad Prism 8. N=4 biological replicates were used for each treatment condition.
MOLT4 cells were plated in a 384-well plate at 5,000 cells per well in 50 μL media (RPMI+10% FBS+1% Penn/Strep) and treated with 0.1 μL of the candidate compounds in four-fold dilution series using the Janus pinner. Cells were incubated with compounds for 72 hours at 37° C. 5% CO2. Anti-proliferative effects of these compounds were assessed 72 hours after compound addition using CellTiter-Glo® (Promega, cat #G7571). All proliferation assays were performed in biological quadruplicate. […] Effects upon cell viability for compound 13 in the MOLT4 WT cells are therefore likely driven in part by Wee1 inhibition, and in part by CRBN-mediated Wee1 degradation. […] Degradation of Wee1 with compound 21 was mediated by VHL.

PLK1 = PLK1 (Homo sapiens, UniProt P53350); assay: Z′-LYTE kinase activity assay for PLK1; type: biochemical; set-up: purchased Life Technologies (Invitrogen) commercial assay service; settings: Km ATP, average of two replicates ± SD
Protocol: (§1) LanthaScreen™ assays were conducted for Wee1 in a 10-point dose response as performed in the commercial assay service by Life Technologies™. Z′-LYTE™ assays were conducted for PLK1 as performed in the commercial assay service by Life Technologies™ in a 10-point dose response using Km ATP concentrations.
The selectivity of Wee1 degradation was then assessed by performing multiplexed mass spectrometry (MS)-based proteomics in MOLT4 cells treated with 100 nM of compound 13 for 2 hours (Donovan et al., Elife 7:e38430 (2018)).

pCDK1 Y15 = assay: Downstream signalling immunoblot in MOLT4 cells (pCDK1 Y15, cleaved PARP, γH2Ax); type: cell-based; settings: MOLT4 cells
Protocol: Whole cell lysates for immunoblotting were prepared by pelleting cells from each cell line at 4° C. (300 g) for 5 minutes. The resulting cell pellets were washed 1× with ice-cold PBS and then resuspended in RIPA lysis buffer (Sigma, cat #R0278) supplemented with protease and phosphatase inhibitor tablets (Roche cat #4906845001). Lysates were clarified at 14,000 rpm for 15 minutes at 4° C. prior to quantification by BCA assay (Pierce™, cat #23225). Whole cell lysates were loaded into Bolt 4-12% Bis-Tris Gels (Thermo Fisher, cat #NW04120BOX) and separated by electrophoreses at 95 V for 1.5 hours. The gels were transferred to a nitrocellulose membrane using the iBlot® Gel Transfer at P3 for 7 minutes (Thermo Fisher, cat #IB23001) and then blocked for 1 hour at room temperature in Odyssey® blocking buffer (LICOR® Biosciences, cat #927-50010). Membranes were probed using antibodies against the relevant proteins at 4° C. overnight in 20% Odyssey® Blocking Buffer in 1×TBST. Membranes were then washed three times with 1×TBST (at least 5 minutes per wash) followed by incubation with the IRDye® goat anti-mouse (LICOR®, cat #926-32210) or goat anti-rabbit (LICOR®, cat #926-32211) secondary antibody (diluted 1:10,000) in 20% Odyssey® Blocking Buffer in 1×TBST for 1 hour at room temperature. After three washes with 1×TBST (at least 5 minutes per wash), the immunoblots were visualized using the ODYSSEY® Infrared Imaging System (LICOR®).
MOLT4 cells were plated at 1.5 million cells per well in a 6-well plate, with 3 mL of media per well. Cells were then immediately treated with the indicated concentration of the indicated compound and incubated for the indicated amount of time. Cells were collected by transferring each well to a 15 mL conical, centrifuging (1000 rpm for 3 min), then washing the cell pellet 2× with cold PBS. Each cell pellet was then lysed in 100 μL of RIPA lysis buffer (+protease/phosphatase inhibitors). Samples were normalized and prepped in 4×LDS+10% β-mercaptoethanol and boiled for 5 min at 95° C. Lysates were probed for specified proteins by western blotting using the Bolt® system (Life Technologies™)
The effects of targeted Wee1 degradation on the cell cycle were evaluated. Wee1 is required for the temporal regulation of CDK1 at the G2/M cell-cycle checkpoint, and Wee1 loss therefore […] via activation of CDK1. Following loss of Wee1 activity, cells are expected to enter mitosis before completing DNA repair, ultimately resulting in excessive unrepaired DNA damage, mitotic catastrophe, and apoptosis (Beck et al., Mol. Cell Biol. 32:4226-4236 (2012)).

MOLT4 cells = assay: Cell cycle analysis by propidium iodide staining; type: cell-based
Protocol: MOLT4 cells were plated at 1.5 million cells per well in a 6-well plate, with 3 mL of media per well. Immediately after plating, cells were treated with the indicated concentrations of the indicated compound. At the indicated time points, cells were collected by transferring each well to a 15 mL conical, centrifuging (1000 rpm for 3 min), and then washing the cell pellet 3× with cold PBS. Cell pellets were then fixed with 1 mL cold 80% ethanol in PBS at 4° C. overnight. The cell pellets were then washed by adding 1 mL of PBS and then centrifuging (1500 rpm for 5 minutes), followed by aspiration of the PBS/ethanol mix. Cells were resuspended in cell cycle staining solution (100 μg/mL of RNAse A (Roche, 10109169001) and 50 μg/mL propidium iodide (Life Technologies™, P1304MP), diluted in PBS, and incubated for 10 minutes at room temperature. Cell cycle data was acquired by flow cytometry on a Guava® easyCyte™ flow cytometer (Millipore™) using the InCyte™ software. Data was analyzed using FlowJo®. N=3 biological replicates were used for each treatment condition.

OVCAR8 cells = assay: Synergy experiment, CellTiter-Glo co-treatment for 72 hours; type: cell-based
Wee1 = Wee1 (Homo sapiens, UniProt P30291); assay: LanthaScreen FRET-based biochemical binding assay for Wee1; settings: LanthaScreen Binding activity assay; average of two replicates ± SD
Protocol: as §1

Chain of PLK1 (P53350 whole entry): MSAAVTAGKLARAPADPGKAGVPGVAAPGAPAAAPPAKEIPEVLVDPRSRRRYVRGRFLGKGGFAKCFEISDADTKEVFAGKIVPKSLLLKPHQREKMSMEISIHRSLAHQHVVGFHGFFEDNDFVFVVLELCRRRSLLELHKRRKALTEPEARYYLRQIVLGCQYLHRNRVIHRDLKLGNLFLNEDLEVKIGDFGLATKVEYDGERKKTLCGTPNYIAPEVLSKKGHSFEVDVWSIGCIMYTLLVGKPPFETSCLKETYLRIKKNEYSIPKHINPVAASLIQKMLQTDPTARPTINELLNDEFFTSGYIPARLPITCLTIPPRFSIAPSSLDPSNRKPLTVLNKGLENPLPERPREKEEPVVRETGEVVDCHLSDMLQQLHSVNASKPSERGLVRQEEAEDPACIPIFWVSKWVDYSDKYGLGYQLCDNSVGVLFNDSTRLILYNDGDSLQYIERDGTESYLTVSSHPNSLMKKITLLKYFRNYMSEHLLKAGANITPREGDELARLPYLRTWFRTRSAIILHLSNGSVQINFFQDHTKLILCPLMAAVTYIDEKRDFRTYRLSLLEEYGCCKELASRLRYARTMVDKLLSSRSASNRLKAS
Chain of Wee1 (P30291 whole entry): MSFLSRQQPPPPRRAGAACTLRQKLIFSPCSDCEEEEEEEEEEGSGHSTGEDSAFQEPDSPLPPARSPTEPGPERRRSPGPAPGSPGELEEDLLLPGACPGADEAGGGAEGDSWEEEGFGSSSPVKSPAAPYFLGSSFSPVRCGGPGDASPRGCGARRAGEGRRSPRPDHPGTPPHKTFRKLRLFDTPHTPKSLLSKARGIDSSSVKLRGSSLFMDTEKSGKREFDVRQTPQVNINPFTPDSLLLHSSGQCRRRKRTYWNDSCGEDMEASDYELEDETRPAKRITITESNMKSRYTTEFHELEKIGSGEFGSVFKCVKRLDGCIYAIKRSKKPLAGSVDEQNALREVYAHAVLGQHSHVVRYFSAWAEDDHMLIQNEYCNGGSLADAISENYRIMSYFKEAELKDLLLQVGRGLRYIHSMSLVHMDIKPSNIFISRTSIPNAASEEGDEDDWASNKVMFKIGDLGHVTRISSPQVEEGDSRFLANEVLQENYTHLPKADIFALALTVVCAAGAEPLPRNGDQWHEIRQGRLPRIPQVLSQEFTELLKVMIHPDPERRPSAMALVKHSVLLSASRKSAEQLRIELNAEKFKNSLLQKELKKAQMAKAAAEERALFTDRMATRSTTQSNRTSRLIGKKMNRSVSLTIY

Compound	IC50 ([1]; Homo sapiens, MOLT-4, 72 hours, read-out: Antiproliferative IC50)	IC50 (PLK1)	Downstream signalling changes (pCDK1 Y15, PARP cleavage, γH2Ax) (pCDK1 Y15; 100 nM, 24-hr)	Treatment necessary to induce the same downstream changes as 100 nM of compound 13 (pCDK1 Y15; 24-hr)	Effect on the cell cycle (MOLT4 cells; 100 nM, 24-hr, MOLT4 cells)	Dose needed to elicit the same cell cycle changes as 100 nM of compound 13 (MOLT4 cells; 24-hr, MOLT4 cells)	Cell cycle effects in CRBN−/− cells (MOLT4 cells; CRBN−/− MOLT4 cells, 24 hours)	Synergy with AZD1775 (OVCAR8 cells; 72-hr co-treatment with AZD1775)	Synergy with Olaparib (OVCAR8 cells; 72-hr co-treatment with Olaparib)	Antiproliferative activity ([1]; 72-hr)	IC50 (Wee1)	Effect on phosphorylation of CDK1 Y15, apoptosis, DNA damage (pCDK1 Y15; 1 μM, 24 hours)
C=CCn1c(=O)c2cnc(Nc3ccc(N4CCN(C)CC4)cc3)nc2n1-c1cccc(C(C)(C)O)n1 [AZD1775, 2-allyl-1-[6-(1-hydroxy-1-methylethyl)pyridin-2-yl]-6-{[4-(4-methylpipera-zin-1-yl)phenyl]amino}-1,2-dihydro-3H-pyrazolo[3,4-d]pyrimidin-3-one, reference compound]	0.8 µM	0.212 ± 0.012 µM	did not produce any noticeable changes	1 µM	did not appreciably affect the cell cycle	1 µM	unchanged					
Nc1cccc2c1C(=O)N(C1CCC(=O)NC1=O)C2=O (stereo not shown) [Pomalidomide, reference compound]		> 10 µM						not synergistic	not synergistic	no detectable antiproliferative activity	> 10 µM	did not affect phosphorylation of CDK1 Y15, apoptosis, or levels of DNA damage
